The values that follow come from patent US5032573A, “Homologs of aprotinin produced from a recombinant host, process, expression vector and recombinant host therefor and pharmaceutical use thereof” (Bayer Aktiengesellschaft, priority 1989, dated 1991).

What all share (assay type): biochemical
Assay [1] concerns the target T1, porcine trypsin (Sus scrofa, UniProt P00761).
T1 construct: purchased Merck 8350
In words: Trypsin inhibition assay with Pyr-Glu-Gly-Arg-pNA as the substrate. Here is the method: (§1) Glu-52-Aprotinin obtained after cleavage with BrCN was compared with authentic aprotinin for its inhibitory activity against porcine trypsin. Both substrates Pyrglu-Gly-Arg-pNA and Benzoyl-Arg-pNa were used for trypsin determination.
(§2) The stock solution for aprotinin was 1 μg/ml, and for Glu-52-aprotinin 0.6 μg/ml. 0-100-200-300-400-500 μl of this stock solutions were used in the test with Benzol-Arg-pNA. In the test with Pyrglu-Gly-Arg-pNA,0-3-6-9-12-15 μl were used.
(§3) Inhibition of trypsin was determined by means of either the substrate benzoyl-DL-arginine-p-nitroanilide (Merck 1670) or pyroglutamyl-glycyl-arginine-p-nitroanilide, which was synthesized from commercially available pyroglutamyl-glycine (SENN 6886) and arginine-p-nitroanilide×HBr (SENN 9123) by means of the dicyclohexyl carbodiimide condensation method. This substrate is also sold under the designation S-2444 by KABI as an urokinase substrate.
(§4) The former has the advantage of giving a linear response to the amount of Aprotinin in the sample, but has a low sensitivity. The latter one has a high sensitivity, but due to the dissociation of the aprotinin-trypsin-complex at those low concentrations, the dose-response-curve is non linear.
(§5) The buffer for the measurement of trypsin and trypsin inhibitors is 0.2M Tris, pH 8.0 containing 0.01M CaCl2 and 0.05% Tween 80®.
(§6) The determinations can be performed in any spectral photometer which allows readings of optical densities (ODs) at 400 nm. For fully automated measurements, the photometers have to be equipped with a micro processor or must be interfaced with a suitable personal computer.
(§7) Disposable 1 cm semi micro plastic cuvettes are used for all assays. ODs are read in time intervals of 1 minute over 8 cycles at ambient temperature. The average increase of OD per minute is arbitrarily taken as the activity unit.
(§8) For inhibition assays, porcine trypsin (Merck 8350) solution (in 0.001N HCl/50% glycerol) is mixed with the inhibitor sample, adjusted to 500 μl with buffer and incubated for 10 minutes at ambient temperature. The reaction is initiated by the addition of substrate solution. Inhibitory activities are taken from a calibration curve or automatically calculated by computer programs developed especially for this purpose. […]

The target of assay [2] is T1, porcine trypsin. In words: Trypsin inhibition assay with Benzoyl-Arg-pNA as the substrate. The following applies: for ΔE/10 minutes: control without inhibitor 0.91. Here is the method:
as §1, §2, §3, §4, §5, §6, §7, §8

Assay [3] addresses cationic human Trypsin (Homo sapiens, UniProt P07477). In words: Kinetic studies, Ki by the method of Empie and Laskowski. Here is the method:
(§9) The Ki values were determined by the method of M. W. Empie and M. Laskowski, Jr., Biochem. 21, 2274 (1982).

In assay [4] the target is anionic human Trypsin (Homo sapiens, UniProt P07478). Described as above. The protocol:
as §9

[5] abbreviates: substrate Pyr-Glu-Gly-Arg-pNA, amount inhibitor per assay 9 ng, control without inhibitor 0.85 (aprotinin), 0.84 (Glu-52-aprotinin).
[6] abbreviates: substrate Benzoyl-Arg-pNA, amount inhibitor per assay 300 ng.

T1 sequence (P00761 9-231): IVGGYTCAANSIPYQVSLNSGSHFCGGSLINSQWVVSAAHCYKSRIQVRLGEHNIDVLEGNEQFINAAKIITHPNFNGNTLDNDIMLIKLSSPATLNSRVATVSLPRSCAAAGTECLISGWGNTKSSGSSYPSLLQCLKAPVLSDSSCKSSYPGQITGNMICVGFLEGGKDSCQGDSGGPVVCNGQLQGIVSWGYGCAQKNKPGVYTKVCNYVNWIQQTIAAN
Chain of anionic human Trypsin (P07478 24-247): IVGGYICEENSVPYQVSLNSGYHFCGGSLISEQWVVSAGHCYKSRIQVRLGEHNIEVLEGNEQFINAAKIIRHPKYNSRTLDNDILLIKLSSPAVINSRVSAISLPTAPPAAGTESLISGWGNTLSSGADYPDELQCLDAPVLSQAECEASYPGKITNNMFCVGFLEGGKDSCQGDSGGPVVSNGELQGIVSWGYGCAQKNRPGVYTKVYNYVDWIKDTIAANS

Aprotinin [reference compound]: the ΔE/10 minutes turned out to be 0.62 in assay [1] (substrate Pyr-Glu-Gly-Arg-pNA, amount inhibitor per assay 3 ng, control without inhibitor 0.85); 0.39 in assay [1] (substrate Pyr-Glu-Gly-Arg-pNA, amount inhibitor per assay 6 ng, control without inhibitor 0.85); 0.29 in assay [1] (setting [5]); 0.18 in assay [1] (substrate Pyr-Glu-Gly-Arg-pNA, amount inhibitor per assay 12 ng, control without inhibitor 0.85); 0.13 in assay [1] (substrate Pyr-Glu-Gly-Arg-pNA, amount inhibitor per assay 15 ng, control without inhibitor 0.85); 0.76 in assay [2] (substrate Benzoyl-Arg-pNA, amount inhibitor per assay 100 ng). In addition, the ΔE/10 minutes in assay [2] (substrate Benzoyl-Arg-pNA, amount inhibitor per assay 200 ng) worked out at 0.57; in assay [2] (setting [6]), 0.39; in assay [2] (substrate Benzoyl-Arg-pNA, amount inhibitor per assay 400 ng) it was 0.08; in assay [2] (substrate Benzoyl-Arg-pNA, amount inhibitor per assay 500 ng) it was 0.00.
On to Glu-52-aprotinin, for which the “equilibrium constants of the trypsin-inhibitor complexes compared with aprotinin” value in assay [1] (concluded from the trypsin inhibition dose-response curves) is on record as “in the same order of magnitude”. The “trypsin inhibitory activity, dose-response curve compared with aprotinin” value in assay [1] (substrate Pyr-Glu-Gly-Arg-pNA, FIG. 11) is “identical dose-response curves”; in assay [2] (substrate Benzoyl-Arg-pNA, FIG. 11), “identical dose-response curves”. Besides, the ΔE/10 minutes was 0.67 in assay [1] (substrate Pyr-Glu-Gly-Arg-pNA, amount inhibitor per assay 1.8 ng, control without inhibitor 0.84); 0.56 in assay [1] (substrate Pyr-Glu-Gly-Arg-pNA, amount inhibitor per assay 3.6 ng, control without inhibitor 0.84); 0.47 in assay [1] (substrate Pyr-Glu-Gly-Arg-pNA, amount inhibitor per assay 5.4 ng, control without inhibitor 0.84); 0.32 in assay [1] (substrate Pyr-Glu-Gly-Arg-pNA, amount inhibitor per assay 7.2 ng, control without inhibitor 0.84); 0.28 in assay [1] (setting [5]); 0.77 in assay [2] (substrate Benzoyl-Arg-pNA, amount inhibitor per assay 60 ng). Further, the ΔE/10 minutes in assay [2] (substrate Benzoyl-Arg-pNA, amount inhibitor per assay 120 ng) stood at 0.68; in assay [2] (substrate Benzoyl-Arg-pNA, amount inhibitor per assay 180 ng) it was 0.58; in assay [2] (substrate Benzoyl-Arg-pNA, amount inhibitor per assay 240 ng), 0.44; in assay [2] (setting [6]) it was 0.30. In addition, the active molecules contained in assay [2] (concluded from the trypsin inhibition dose-response curves against authentic aprotinin) is roughly 100%.
As to Arg-15-Glu-52-aprotinin, the inhibition constant Ki in assay [3] and in assay [4] was less than 10 pM throughout.
